US11441181B2, “miRNA-124 as a biomarker” (priority 2013, dated 2022)

Assays:
ADA-M R5 HIV = assay: Treatment of PBMCs infected with ADA-M R5 HIV strain; format: cell-based
Procedure: For that purpose, peripheral blood mononuclear cells (PBMCs) of five healthy donors have been isolated by centrifugation on a FICOLL gradient. The cells have then been cultivated at 37° C., 5% CO2 to a density of 1×10^6 cells/mL in RPMI Glutamax medium (Life Technologies Ref 61870-010) supplemented with 10% fetal calf serum (FCS) (Thermo Fischer Ref SV30160.03) 1000 U/mL of IL2 (Peprotech Ref 200-02) and […] of PHA (Roche ref 1249738). Three days later, cells have been pooled and resuspended to a density of 1×10^6 cells/mL in RPMI Glutamax medium supplemented with 10% fetal calf serum (FCS) 1000 U/mL of IL-2 and distributed in 12 wells plates (Falcon Ref 353043) with 1.2 mL/well (4 wells per condition).
HIV-1 infection has been performed with 1 ng of Ada-M R5 HIV strain/well. Cells were treated for 6 days with 1.2 mL/well of 60 μM solution of 8-chloro-N-[4-(trifluoromethoxy)phenyl]quinolin-2-amine or with 0.12% DMSO (Sigma Ref D4818 as negative control).

[1] = test system: HIV-1 and HIV-2 T cell-tropic laboratory strains as well as clinical isolates of different subtypes; conditions: HIV-1 and HIV-2 laboratory strains and clinical isolates; cited from earlier work

Compound: FC(F)(F)Oc1ccc(Nc2ccc3cccc(Cl)c3n2)cc1 [8-chloro-N-[4-(trifluoromethoxy)phenyl]quinolin-2-amine]
- effect on viruses in infected PBMCs (ADA-M R5 HIV): removal of the viruses
- inhibition of replication in PBMC, active concentrations [1]: nM concentrations range
